Assay: xn = mol fraction of the nth substance listed
Conditions: 101 kPa, Liquid; for viscosity: Capillary tube (Ostwald / Ubbelohde) method; for mass density: Vibrating tube method; for speed of sound: automatically measured using an Anton Paar DSA 5000 instrument

CC(C)CCCC(C)CCCC(C)CCCCC(C)CCCC(C)CCCC(C)C (configuration not stated) [2,6,10,15,19,23-hexamethyltetracosane] + CC(C)CO
Conditions | mass density, 298.15 K [kg/m3] | mass density, 303.15 K [kg/m3] | mass density, 308.15 K [kg/m3] | speed of sound, 298.15 K [m/s] | speed of sound, 303.15 K [m/s] | speed of sound, 308.15 K [m/s] | viscosity, 298.15 K [mPa·s] | viscosity, 303.15 K [mPa·s] | viscosity, 308.15 K [mPa·s]
x2 = 0.0803 | 804.648 | 801.388 | 798.13 | 1377 | 1359.1 | 1341.4 | 23.81 | 18.82 | 15.28
x2 = 0.1032 | 804.528 | 801.259 | 797.982 | 1375.6 | 1357.7 | 1340 | 22.85 | 18.11 | 14.72
x2 = 0.1672 | 804.219 | 800.916 | 797.596 | 1371.4 | 1353.4 | 1335.6 | 20.71 | 16.5 | 13.45
x2 = 0.2045 | 804.051 | 800.733 | 797.401 | 1368.7 | 1350.8 | 1332.9 | 19.78 | 15.78 | 12.85
x2 = 0.2551 | 803.824 | 800.484 | 797.129 | 1364.9 | 1347.2 | 1329.2 | 18.76 | 14.97 | 12.18
x2 = 0.3201 | 803.546 | 800.183 | 796.807 | 1359.9 | 1341.8 | 1324 | 17.7 | 14.12 | 11.47
x2 = 0.417 | 803.131 | 799.716 | 796.307 | 1351.3 | 1333.4 | 1315.5 | 16.34 | 12.99 | 10.54
x2 = 0.4978 | 802.728 | 799.277 | 795.831 | 1343.1 | 1325.1 | 1307.2 | 15.11 | 12 | 9.757
x2 = 0.6316 | 801.934 | 798.413 | 794.872 | 1325.5 | 1307.7 | 1290.1 | 12.54 | 9.98 | 8.196
x2 = 0.7005 | 801.422 | 797.855 | 794.26 | 1313.6 | 1295.9 | 1278.1 | 10.9 | 8.721 | 7.217
x2 = 0.8028 | 800.494 | 796.852 | 793.147 | 1289.2 | 1271.7 | 1254.1 | 8.199 | 6.648 | 5.581
x2 = 0.8482 | 800.015 | 796.317 | 792.582 | 1274.6 | 1257.1 | 1239.6 | 6.959 | 5.693 | 4.802
x2 = 0.9095 | 799.392 | 795.551 | 791.791 | 1248.9 | 1231.6 | 1214.3 | 5.361 | 4.404 | 3.728
x2 = 0.9448 | 799.012 | 795.162 | 791.339 | 1229.5 | 1212.5 | 1195.4 | 4.53 | 3.703 | 3.115

CCCCCCCCCCCCCCCC [hexadecane] + CC(C)CO
Conditions | mass density, 298.15 K [kg/m3] | mass density, 303.15 K [kg/m3] | mass density, 308.15 K [kg/m3] | speed of sound, 298.15 K [m/s] | speed of sound, 303.15 K [m/s] | speed of sound, 308.15 K [m/s] | viscosity, 298.15 K [mPa·s] | viscosity, 303.15 K [mPa·s] | viscosity, 308.15 K [mPa·s]
x2 = 0.0505 | 770.506 | 766.982 | 763.479 | 1333.6 | 1314.5 | 1296.1 | 2.807 | 2.494 | 2.233
x2 = 0.108 | 770.704 | 767.145 | 763.586 | 1328.2 | 1309.5 | 1291.1 | 2.658 | 2.345 | 2.102
x2 = 0.1539 | 770.945 | 767.37 | 763.784 | 1324.2 | 1305.5 | 1287 | 2.601 | 2.277 | 2.023
x2 = 0.2202 | 771.403 | 767.797 | 764.189 | 1318.4 | 1299.8 | 1281.3 | 2.576 | 2.246 | 1.975
x2 = 0.2709 | 771.834 | 768.215 | 764.58 | 1313.8 | 1295.1 | 1276.6 | 2.596 | 2.235 | 1.952
x2 = 0.3389 | 772.519 | 768.878 | 765.22 | 1307.3 | 1288.7 | 1270.2 | 2.638 | 2.252 | 1.946
x2 = 0.4112 | 773.437 | 769.755 | 766.075 | 1299.9 | 1281.3 | 1262.8 | 2.672 | 2.292 | 1.967
x2 = 0.5043 | 774.946 | 771.22 | 767.482 | 1289.8 | 1271.2 | 1252.8 | 2.694 | 2.296 | 1.985
x2 = 0.5989 | 776.918 | 773.158 | 769.37 | 1277.8 | 1259.3 | 1241 | 2.676 | 2.295 | 1.998
x2 = 0.6938 | 779.505 | 775.707 | 771.873 | 1263.6 | 1245.3 | 1227.4 | 2.643 | 2.274 | 1.984
x2 = 0.8115 | 783.946 | 780.177 | 776.274 | 1241.5 | 1223.8 | 1206.2 | 2.673 | 2.28 | 2
x2 = 0.8638 | 786.74 | 782.888 | 778.972 | 1229.5 | 1211.9 | 1194.4 | 2.756 | 2.322 | 2.009
x2 = 0.9037 | 789.326 | 785.457 | 781.543 | 1219 | 1201.6 | 1184.3 | 2.874 | 2.379 | 2.046
x2 = 0.938 | 792.003 | 788.12 | 784.196 | 1209.3 | 1192.2 | 1175.2 | 3.023 | 2.469 | 2.082

Reference: the NIST ThermoML archive (doi:10.1016/j.jct.2009.02.002)
